This assay has as its system truncated vancomycin aptamer (four base pairs removed from the stem), E-AB sensor (DNA, aptamer) CGAGGGTACCGCAATAGTACTTATTGTTCGCCTATTGTGGGTCGG
Briefly: electrochemical aptamer-based sensor, square-wave voltammetry. The following applies: undiluted flowing whole blood; surface-attached aptamer; apparent.

In the case of `CN[C@H](CC(C)C)C(=O)N[C@H]1C(=O)N[C@@H](CC(N)=O)C(=O)N[C@H]2C(=O)N[C@H]3C(=O)N[C@H](C(=O)N[C@H](C(=O)O)c4cc(O)cc(O)c4-c4cc3ccc4O)[C@H](O)c3ccc(c(Cl)c3)Oc3cc2cc(c3O[C@@H]2O[C@H](CO)[C@@H](O)[C@H](O)[C@H]2O[C@H]2C[C@](C)(N)[C@H](O)[C@H](C)O2)Oc2ccc(cc2Cl)[C@H]1O`, the KD stood at 45 µM.
